Source: patent publication US7022695B2, “Thioether-substituted benzamides as inhibitors of Factor Xa” (Millennium Pharmaceuticals, Inc., priority 2003, dated 2006)

Target: T1, human plasma protein factor Xa (Homo sapiens, UniProt P00742)
T1 construct: The human plasma protein factor Xa was purchased from Haematologic Technologies; purchased Haematologic Technologies (Essex Junction, Vt.); host or cells: human plasma
Assay: Factor Xa Ki determination (cleavage of chromogenic substrate S-2765)
Type: biochemical
Settings: fXa 1 nM, S-2765 200 μM, pH 7.4
Experimental: Protocol for Assay of Factor Xa Inhibitors
The substrate S-2765 (Z-D-Arg-Gly-Arg-pNA.HCl) was obtained from Diapharma (West Chester, Ohio).
The human plasma protein factor Xa was purchased from Haematologic Technologies (Essex Junction, Vt.).
The assay buffer for this series of assays was: Hepes buffered saline (20 mM Hepes, 150 mM NaCl, 5 mM CaCl2, 0.1% PEG-8000, pH 7.4). In a 96-well microtiter plate, inhibitor was serially diluted in a duplicate set of wells to give a range of final concentrations from 5 pM to 3 μM final. Controls without inhibitor (8 wells) were included. The enzyme, fXa (1 nM final) was added to the wells. The substrate S-2765 (200 μM final) was added and the degree of substrate hydrolysis was measured at 405 nm on a Thermomax plate reader for 5 minutes, using Softmax software. Initial velocities (mOD/min) were analyzed by non-linear least squares regression in the Plate Ki software (BioKin Ltd, Pullman, Wash.)(Literature reference: Kusmic P, et al., “High-throughput screening of enzyme inhibitors: Automatic determination of tight-binding inhibition constants” Anal. Biochemistry 2000, 281:62–67). The model used for fitting the inhibitor dose-response curves was the Morrison equation. An apparent Ki (Ki*) was determined. The overall Ki was calculated using the following equation: […]

T1 sequence (P00742 235-488 limits assumed): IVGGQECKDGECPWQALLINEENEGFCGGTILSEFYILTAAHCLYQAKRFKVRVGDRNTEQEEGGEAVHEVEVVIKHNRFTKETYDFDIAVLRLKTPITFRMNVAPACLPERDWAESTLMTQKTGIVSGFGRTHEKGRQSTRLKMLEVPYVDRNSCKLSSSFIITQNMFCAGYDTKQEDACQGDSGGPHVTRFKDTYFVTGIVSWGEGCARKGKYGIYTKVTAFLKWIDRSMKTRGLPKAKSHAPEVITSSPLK
T1 sequence (P00742 41-179 partner limits assumed): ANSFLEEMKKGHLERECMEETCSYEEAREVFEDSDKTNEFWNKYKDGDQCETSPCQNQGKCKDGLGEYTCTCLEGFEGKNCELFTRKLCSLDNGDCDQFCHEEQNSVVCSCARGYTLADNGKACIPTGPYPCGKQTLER

Ki [nM] | SMILES
< 10 | CN(C)C(=N)c1ccc(C(=O)Nc2ccc(SCC(=O)N3CCCCC3)cc2C(=O)Nc2ccc(Cl)cn2)cc1 [Example 2]
< 10 | CN(C)C(=O)CSc1ccc(NC(=O)c2ccc(C3=NCCN3C)cc2)c(C(=O)Nc2ccc(Cl)cn2)c1 [Example 4]
< 10 | CN(C)CCSc1ccc(NC(=O)c2ccc(C(=N)N(C)C)cc2)c(C(=O)Nc2ccc(Cl)cn2)c1 [Example 9]
< 10 | CN1CCN=C1c1ccc(C(=O)Nc2ccc(SCC(N)=O)cc2C(=O)Nc2ccc(Cl)cn2)cc1 [Example 6]
< 10 | CN(C)C(=N)c1ccc(C(=O)Nc2ccc(SCC(=O)N(C)C)cc2C(=O)Nc2ccc(Cl)cn2)cc1 [Example 1, N-(5-chloro-2-pyridinyl)-2-(4-N,N-dimethylamidinophenylcarbonyl)amino-5-acetic acid dimethylamide sulfanyl-phenylcarboxamide]
< 10 | CN(C)C(=N)c1ccc(C(=O)Nc2ccc(SCC(=O)N3CCN(C(=O)OC(C)(C)C)CC3)cc2C(=O)Nc2ccc(Cl)cn2)cc1 [Example 3]
< 10 | CNC(=O)CSc1ccc(NC(=O)c2ccc(C3=NCCN3C)cc2)c(C(=O)Nc2ccc(Cl)cn2)c1 [Example 7]
